In brackets after ≈: the same amount, converted by molar mass.
How the values were obtained:
[1] = system: MRC5 (lung normal fibroblast); assay: XTT cell viability assay, MRC5 normal fibroblasts; type: cell-based; conditions: Homo sapiens
Description: (§1) The human cell lines MCF-7 (breast adenocarcinoma), HepG2 (hepatoma), T24 (bladder cancer), CACO-2 (colorectal adenocarcinoma) and MRC5 (lung normal fibroblast) were obtained from the Rio de Janeiro Cell Bank (Rio de Janeiro, RJ, Brazil). The HCT116 cell (colorectal carcinoma), and HT29 cell (colorectal adenocarcinoma) were kindly provided by Dr. Annette K. Larsen (Institut National de la Santé et de la Recherche Médicale - INSERM, Paris, França). All cell lines except MCF-7 were grown in DMEM supplemented with 10% or 20% (for CACO-2) FBS, 100 units.mL^-1 penicillin and 100 μg.mL^-1 streptomycin at 37°C in a humidified atmosphere of 5% CO2. MCF-7 cells were maintained in RPMI-1640 supplemented with 20% FBS at the same conditions described above.
(§2) The cytotoxic potential of the TTHL was evaluated by the XTT assay in human tumor cell lines as well as in MRC5 normal fibroblasts. Cells (1 × 10^4 cells) were seeded on 96-well plates in growth medium and incubated overnight. Afterwards, TTHL (0.5, 1.0, 2.5, 5.0, and 10 μg/mL) was added to each well and incubated for 24, 48, 72, and 120 h. Mitoxantrone, a cytostatic anthracenedione that intercalates in DNA and increases the incidence of double-strand breaks by stabilizing the cleavable complex of topoisomerase II and DNA, was used as positive control. At the end of each treatment, cell viability was assessed according to the manufacturer’s instructions. Briefly, after discarding the medium, 1 mL of XTT labeling mixture was added to the cells and incubated for 2 h at 37°C. Absorbance was measured with a SpectraMax reader (Bio-Rad, USA) at a test wavelength of 492 nm (A492) and a reference wavelength of 690 nm (A690). The final result corresponds to A492-A690. The absorbance of negative control cells was set as 100% viability, and the values for treated cells were calculated as a percentage of the control.
(§3) The IC20, IC50, and IC80 values and their 95% confidence intervals (CI 95%) were obtained by nonlinear regression using GraphPad Prism v5 program (Intuitive Software for Science, San Diego, CA, USA). Selective index (SI) was calculated by IC50 in MRC5 cells/IC50 in tumoral cells. All experiments were independently repeated at least three times, with triplicate samples for each treatment. Results are expressed as means ± standard deviation (SD). Data were analyzed by one-way analysis of variance (ANOVA), and means were compared using Tukey test, with P ≤ 0.05 considered as statistically significant.

[2] = system: MCF-7 (breast adenocarcinoma); assay: XTT cell viability assay, MCF-7; type: cell-based, human; conditions: for IC50: XTT
Description: as §1, §2, §3

T24 (bladder cancer) = assay: XTT cell viability assay, T24; type: cell-based, human; conditions: for IC50: Homo sapiens, XTT
Description: as §1, §2, §3

[3] = system: HT29 cell (colorectal adenocarcinoma); assay: XTT cell viability assay, HT29; type: cell-based, human; conditions: for IC50: Homo sapiens, HT-29, XTT
Description: as §1, §2, §3

[4] = system: S. cerevisiae EG110 (sod2Δ); assay: Yeast survival assay, EG110 (sod2Δ); type: cell-based, Saccharomyces cerevisiae; conditions: for survival (percentage in relation to negative control): STAT cells, 1 h in PBS 30°C
Description: Media, solutions and buffers were prepared according to Burke et al.. YPD medium (0.5% yeast extract, 2% peptone, 2% glucose) was used for routine growth. Synthetic medium SC (0.67% yeast nitrogen base, 0.1% ammonium sulfate, 2% glucose) supplemented with the appropriate amino acids and bases ([…]) was used for the detection of mutations.
Stationary phase (STAT) cultures were obtained by inoculation of a single colony into liquid YPD. We chose to work in the stationary phase of growth because this resembles most cells of multicellular organisms in important aspects: (i) most energy comes from mitochondrial respiration; (ii) the cells have left the active cell cycle and have entered the Go phase; and (iii) damage accumulates over time.
STAT cells (1 × 10^8 cells/mL) were exposed to TTHL (10–500 μg/mL) and incubated under growth conditions for 1 h in PBS at 30°C. Cells were then washed and treated with H2O2 (5 mM) in PBS for another hour. Suitable aliquots were plated in triplicate on solid YPD (2–3 days, 30°C) and colony-forming units were counted. Sensitivity was expressed as a percentage of survival in relation to the negative control (solvent).

How did the IC50 ([1]; MRC5, 24 h treatment) turn out when `C=C(C)[C@@H]1CC[C@@]2(C)[C@H]1[C@H]1CC[C@@H]3[C@@]4(C)CC[C@H](O)C(C)(C)[C@@H]4[C@H](O)C[C@@]3(C)[C@]1(C)C[C@@H]2O` [TTHL, 3β,6β,16β-trihydroxy-lup-20(29)-ene] was run?
The IC50 was 8.4 ± 0.28 µg/mL (≈ 18.3 µM).

What about the IC50 ([1]; MRC5, 48 h treatment) of the same compound?
Its IC50 is 7.6 ± 0.14 µg/mL (≈ 16.6 µM).

What about the IC50 ([1]; MRC5, 72 h treatment) of the same compound?
Its IC50 is 7.4 ± 0.15 µg/mL (≈ 16.1 µM).

And the IC50 ([1]; MRC5, 120 h treatment)?
The IC50 was 6.84 ± 0.1 µg/mL (≈ 14.9 µM).

What about the IC20 ([2]; Homo sapiens, MCF7, MCF-7, 24 h, determined by XTT assay, read-out: IC20 (20% inhibitory concentration)) of the same compound?
The IC20 was 0.5 µg/mL (≈ 1.09 µM).

What about the IC80 ([2]; Homo sapiens, MCF7, MCF-7, 24 h, determined by XTT assay, read-out: IC80 (80% inhibitory concentration)) of the same compound?
The IC80 was 3.7 µg/mL (≈ 8.07 µM).

And the IC50 ([2]; Homo sapiens, MCF7, MCF-7, 24 h treatment)?
Its IC50 is 1.36 ± 0.05 µg/mL (≈ 2.96 µM).

What about the IC50 ([2]; Homo sapiens, MCF7, MCF-7, 48 h treatment) of the same compound?
Its IC50 is 0.73 ± 0.05 µg/mL (≈ 1.59 µM).

What about the IC50 ([2]; Homo sapiens, MCF7, MCF-7, 72 h treatment) of the same compound?
The IC50 was 0.63 ± 0.04 µg/mL (≈ 1.37 µM).

What about the IC50 ([2]; Homo sapiens, MCF7, MCF-7, 120 h treatment) of the same compound?
Its IC50 is 0.3 ± 0.04 µg/mL (≈ 0.654 µM).

What about the “Selectivity index (SI)” value ([2]; IC50 in MRC5 cells/IC50 in MCF-7, 48 h) of the same compound?
Its value is 10 X.

And the “Selectivity index (SI)” value ([2]; IC50 in MRC5 cells/IC50 in MCF-7, 72 h)?
Its value is 12 X.

What about the “Selectivity index (SI)” value ([2]; IC50 in MRC5 cells/IC50 in MCF-7, 120 h) of the same compound?
Its value is 23 X.

And the IC50 (T24 (bladder cancer); T24, 24 h treatment)?
Its IC50 is 5.55 ± 0.64 µg/mL (≈ 12.1 µM).

What about the IC50 (T24 (bladder cancer); T24, 48 h treatment) of the same compound?
The IC50 was 5.2 ± 0.42 µg/mL (≈ 11.3 µM).

And the IC50 (T24 (bladder cancer); T24, 72 h treatment)?
Its IC50 is 1.09 ± 0.14 µg/mL (≈ 2.38 µM).

And the IC50 (T24 (bladder cancer); T24, 120 h treatment)?
The IC50 was 0.39 ± 0.1 µg/mL (≈ 0.85 µM).

And the “Selectivity index (SI)” value (T24 (bladder cancer); IC50 in MRC5 cells/IC50 in T24, 24 h)?
Its value is 1.5 X.

And the “Selectivity index (SI)” value (T24 (bladder cancer); IC50 in MRC5 cells/IC50 in T24, 48 h)?
The value was 1.5 X.

What about the “Selectivity index (SI)” value (T24 (bladder cancer); IC50 in MRC5 cells/IC50 in T24, 72 h) of the same compound?
The value was 7 X.

And the “Selectivity index (SI)” value (T24 (bladder cancer); IC50 in MRC5 cells/IC50 in T24, 120 h)?
The value was 17 X.

What about the IC50 ([3]; HT29, 24 h treatment) of the same compound?
The IC50 was 8 ± 0.14 µg/mL (≈ 17.4 µM).

What about the IC50 ([3]; HT29, 48 h treatment) of the same compound?
Its IC50 is 7 ± 0.42 µg/mL (≈ 15.3 µM).

What about the IC50 ([3]; HT29, 72 h treatment) of the same compound?
The IC50 was 6.15 ± 0.21 µg/mL (≈ 13.4 µM).

What about the IC50 ([3]; HT29, 120 h treatment) of the same compound?
The IC50 was 5.3 ± 0.28 µg/mL (≈ 11.6 µM).

And the “Selectivity index (SI)” value ([3]; IC50 in MRC5 cells/IC50 in HT29, 24 h)?
The value was 1 X.

What about the “Selectivity index (SI)” value ([3]; IC50 in MRC5 cells/IC50 in HT29, 48 h) of the same compound?
The value was 1 X.

What about the “Selectivity index (SI)” value ([3]; IC50 in MRC5 cells/IC50 in HT29, 72 h) of the same compound?
Its value is 1 X.

And the “Selectivity index (SI)” value ([3]; IC50 in MRC5 cells/IC50 in HT29, 120 h)?
The value was 1 X.

And the “survival (percentage in relation to negative control)” value ([4]; TTHL 10 μg/mL)?
The value was 83.20 ± 3.68 %.

And the “survival (percentage in relation to negative control)” value ([4]; TTHL 50 μg/mL)?
Its value is 72.90 ± 7.07 %.

And the “survival (percentage in relation to negative control)” value ([4]; TTHL 100 μg/mL)?
Its value is 62.25 ± 3.32 %.

What about the “survival (percentage in relation to negative control)” value ([4]; TTHL 500 μg/mL) of the same compound?
The value was 56.65 ± 1.06 %.

And the “sensitivity of the strain to TTHL (in words)” value ([4]; deficient in superoxide dismutase)?
Its value is “hypersensitive”.
